Measurements taken from patent US10844032B2, “Substituted benzofuran, benzothiophene and indole Mcl-1 inhibitors” (Vanderbilt University, priority 2012, dated 2020).
pKi: −log10 of the molar value.

What follows are compounds tested against recombinant Mcl-1 (residues 172-327) (Homo sapiens (Human), UniProt Q07820) (assay: Bak peptide fluorescence polarization anisotropy competition assay, Mcl-1). Details: Table 2, Ki range; FITC-Bak peptide 10 nM, Mcl-1 14 nM; read-out: Ki for inhibition of Mcl-1.
Format: binding

recombinant Mcl-1 (residues 172-327), sequence (Q07820 172-327): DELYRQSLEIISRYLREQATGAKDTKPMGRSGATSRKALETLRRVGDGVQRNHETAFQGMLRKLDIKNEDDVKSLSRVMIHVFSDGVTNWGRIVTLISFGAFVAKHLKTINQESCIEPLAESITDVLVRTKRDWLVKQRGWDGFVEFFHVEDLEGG

Row | pKi | SMILES
1 | ≥ 7.00 | Cc1ccsc1-c1cccc2c(CCCOc3cc(C)c(Cl)c(C)c3)c(C(=O)NS(=O)(=O)c3ccccc3)[nH]c12 [Example 99, 3-(3-(4-chloro-3,5-dimethylphenoxy)propyl)-7-(3-methylthiophen-2-yl)-N-(phenylsulfonyl)-1H-indole-2-carboxamide]
2 | ≥ 7.00 | CCCn1nccc1-c1cccc2c(CCCOc3cc(C)c(Cl)c(C)c3)c(C(=O)NS(=O)(=O)c3ccccc3)[nH]c12 [Example 303, 3-(3-(4-chloro-3,5-dimethylphenoxy)propyl)-N-(phenylsulfonyl)-7-(1-propyl-1H-pyrazol-5-yl)-1H-indole-2-carboxamide]

Same assay, conditions: read-out: Ki for inhibition of Mcl-1

Row | pKi | SMILES
3 | 6.00 to 6.30 | CS(=O)(=O)NC(=O)c1[nH]c2cccc(Br)c2c1CCCOc1cccc2ccccc12 [Example 115, 4-bromo-N-(methylsulfonyl)-3-(3-(naphthalen-1-yloxy)propyl)-1H-indole-2-carboxamide]
4 | 6.52 to 7.00 | Cc1cc(OCCCc2c(C(=O)NS(=O)(=O)c3ccc(C(=O)N4CCOCC4)n3C)[nH]c3cc(Cl)ccc23)cc(C)c1Cl [Example 267, 6-chloro-3-(3-(4-chloro-3,5-dimethylphenoxy)propyl)-N-((1-methyl-5-(morpholine-4-carbonyl)-1H-pyrrol-2-yl)sulfonyl)-1H-indole-2-carboxamide]
5 | 6.30 to 6.52 | Cc1cc(OCCCc2c(C(=O)NS(=O)(=O)CCNC(=O)c3cccn3Cc3cccc(Cl)c3)[nH]c3cc(Cl)ccc23)cc(C)c1Cl [Example 243, 6-chloro-3-(3-(4-chloro-3,5-dimethylphenoxy)propyl)-N-((2-(1-(3-chlorobenzyl)-1H-pyrrole-2-carboxamido)ethyl)sulfonyl)-1H-indole-2-carboxamide]
6 | 6.52 to 7.00 | Cc1ccc(C(=O)NCCS(=O)(=O)NC(=O)c2[nH]c3ccccc3c2CCCOc2cc(C)c(Cl)c(C)c2)o1 [Example 157, 3-(3-(4-chloro-3,5-dimethylphenoxy)propyl)-N-((2-(5-methylfuran-2-carboxamido)ethyl)sulfonyl)-1H-indole-2-carboxamide]
7 | 6.00 to 6.30 | O=C(O)c1sc2c(-c3ccccc3)cccc2c1CCCOc1cccc2ccccc12 [Example 11, 3-(3-(naphthalen-1-yloxy)propyl)-7-phenylbenzo[b]thiophene-2-carboxylic acid]
8 | 6.52 to 7.00 | Cc1ccccc1S(=O)(=O)NC(=O)c1[nH]c2ccccc2c1CCCOc1cc(C)c(Cl)c(C)c1 [Example 137, 3-(3-(4-chloro-3,5-dimethylphenoxy)propyl)-N-(o-tolylsulfonyl)-1H-indole-2-carboxamide]
9 | 5.00 to 6.00 | CS(=O)(=O)NC(=O)c1sc2ccccc2c1CCCOc1cccc2ccccc12 [Example 61, N-(methylsulfonyl)-3-(3-(naphthalen-1-yloxy)propyl)benzo[b]thiophene-2-carboxamide]
10 | 6.30 to 6.52 | Cc1cc(OCCCc2c(C(=O)NS(=O)(=O)c3ccccc3)[nH]c3c(-c4cnn(C)c4)ccc(Cl)c23)cc(C)c1Cl [Example 122, 4-chloro-3-(3-(4-chloro-3,5-dimethylphenoxy)propyl)-7-(1-methyl-1H-pyrazol-4-yl)-N-(phenylsulfonyl)-1H-indole-2-carboxamide]
11 | 6.30 to 6.52 | CCOc1ccc(Oc2ccc(S(=O)(=O)NC(=O)c3[nH]c4cc(Cl)ccc4c3CCCOc3cc(C)c(Cl)c(C)c3)cc2)cc1 [Example 223, 6-chloro-3-(3-(4-chloro-3,5-dimethylphenoxy)propyl)-N-((4-(4-ethoxyphenoxy)phenyl)sulfonyl)-1H-indole-2-carboxamide]
12 | 6.30 to 6.52 | Cc1cc(OCCCc2c(C(=O)NS(=O)(=O)CCNC(=O)Cc3ccc(Br)cc3)[nH]c3ccccc23)cc(C)c1Cl [Example 169, N-((2-(2-(4-bromophenyl)acetamido)ethyl)sulfonyl)-3-(3-(4-chloro-3,5-dimethylphenoxy)propyl)-1H-indole-2-carboxamide]
13 | 6.52 to 7.00 | Cc1cc(OCCCc2c(C(=O)NS(=O)(=O)CCNC(=O)c3cccc(Oc4ccccc4)c3)[nH]c3cc(Cl)ccc23)cc(C)c1Cl [Example 231, 6-chloro-3-(3-(4-chloro-3,5-dimethylphenoxy)propyl)-N-((2-(3-phenoxybenzamido)ethyl)sulfonyl)-1H-indole-2-carboxamide]
14 | 6.52 to 7.00 | Cc1cc(OCCCc2c(C(=O)NS(=O)(=O)CCNC(=O)c3cc(C)n(Cc4ccccc4)c3C)[nH]c3ccccc23)cc(C)c1Cl [Example 194, N-((2-(1-benzyl-2,5-dimethyl-1H-pyrrole-3-carboxamido)ethyl)sulfonyl)-3-(3-(4-chloro-3,5-dimethylphenoxy)propyl)-1H-indole-2-carboxamide]
15 | 6.52 to 7.00 | Cc1cc(OCCCc2c(C(=O)NS(=O)(=O)CCNC(=O)Cc3cn(C)c4ccccc34)[nH]c3ccccc23)cc(C)c1Cl [Example 175, 3-(3-(4-chloro-3,5-dimethylphenoxy)propyl)-N-((2-(2-(1-methyl-1H-indol-3-yl)acetamido)ethyl)sulfonyl)-1H-indole-2-carboxamide]
16 | 6.52 to 7.00 | Cc1cc(OCCCc2c(C(=O)NS(=O)(=O)CCNC(=O)c3ccco3)[nH]c3ccccc23)cc(C)c1Cl [Example 171, 3-(3-(4-chloro-3,5-dimethylphenoxy)propyl)-N-((2-(furan-2-carboxamido)ethyl)sulfonyl)-1H-indole-2-carboxamide]
17 | 6.52 to 7.00 | Cc1cc(OCCCc2c(C(=O)NS(=O)(=O)CCNC(=O)c3cccn3Cc3cccc(F)c3)[nH]c3cc(Cl)ccc23)cc(C)c1Cl [Example 246, 6-chloro-3-(3-(4-chloro-3,5-dimethylphenoxy)propyl)-N-((2-(1-(3-fluorobenzyl)-1H-pyrrole-2-carboxamido)ethyl)sulfonyl)-1H-indole-2-carboxamide]
18 | 6.30 to 6.52 | Cc1cc(OCCCc2c(C(=O)NS(=O)(=O)c3cccnc3)[nH]c3ccccc23)cc(C)c1Cl [Example 133, 3-(3-(4-chloro-3,5-dimethylphenoxy)propyl)-N-(pyridin-3-ylsulfonyl)-1H-indole-2-carboxamide]
19 | 5.00 to 6.00 | O=C(NS(=O)(=O)C1CC1)c1sc2ccccc2c1CCCOc1cccc2ccccc12 [Example 67, N-(cyclopropylsulfonyl)-3-(3-(naphthalen-1-yloxy)propyl)benzo[b]thiophene-2-carboxamide]
20 | 6.00 to 6.30 | CS(=O)(=O)NC(=O)c1[nH]c2ccccc2c1CCCOc1ccc(Cl)c2ccccc12 [Example 39, 3-(3-((4-chloronaphthalen-1-yl)oxy)propyl)-N-(methylsulfonyl)-1H-indole-2-carboxamide]
21 | 6.00 to 6.30 | Cc1cc(OCCCc2c(C(=O)NS(=O)(=O)CCNC(=O)c3ccno3)[nH]c3ccccc23)cc(C)c1Cl [Example 154, N-(2-(N-(3-(3-(4-chloro-3,5-dimethylphenoxy)propyl)-1H-indole-2-carbonyl)sulfamoyl)ethyl)isoxazole-5-carboxamide]
22 | 6.52 to 7.00 | Cc1cc(OCCCc2c(C(=O)NS(=O)(=O)Cc3ccccc3)[nH]c3cc(Cl)ccc23)cc(C)c1Cl [Example 66, N-(benzylsulfonyl)-6-chloro-3-(3-(4-chloro-3,5-dimethylphenoxy)propyl)-1H-indole-2-carboxamide]
23 | 6.30 to 6.52 | Cc1cc(OCCCc2c(C(=O)NS(=O)(=O)CCNC(=O)c3ccc4ccccc4c3)[nH]c3ccccc23)cc(C)c1Cl [Example 162, N-((2-(2-naphthamido)ethyl)sulfonyl)-3-(3-(4-chloro-3,5-dimethylphenoxy)propyl)-1H-indole-2-carboxamide]
